Assays:
Experiment in all cases: relative viability (nuclei count vs DMSO), 5 days (fraction); higher = more cells survive
[1] = compound: CC1=CC(=NN1)NC2=CC(=NC(=N2)/C=C/C3=CC=CC=C3)N4CCN(CC4)C + CCNC(=O)c1noc(-c2cc(C(C)C)c(O)cc2O)c1-c1ccc(CN2CCOCC2)cc1 [Luminespib] (partner 0.01 µM)
Method in brief: (§1)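 After 5 days of treatment, lung cancer cells in 1536-well plates were fixed and stained in a single step (final 0.05% Triton X-100, 1% formaldehyde, 1 ug/ml Hoechst) and their nuclei counted on 4× images. Treatment had been applied by pin tool the day after seeding as one drug alone or as a fixed anchor-drug dose with five library-drug doses (not always all listed) in √10 steps. Relative viability is the nuclei count of treated wells divided by that of vehicle wells, and values are medians of duplicate plates.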

Obatoclax + Foretinib = compound: COC1=CC(c2cc3ccccc3[nH]2)=N/C1=C\c1[nH]c(C)cc1C [Obatoclax] + COc1cc2c(Oc3ccc(NC(=O)C4(C(=O)Nc5ccc(F)cc5)CC4)cc3F)ccnc2cc1OCCCN1CCOCC1 [Foretinib] (partner 0.25 µM)
Method in brief: as §1

Obatoclax + Vorinostat = compound: COC1=CC(c2cc3ccccc3[nH]2)=N/C1=C\c1[nH]c(C)cc1C [Obatoclax] + O=C(CCCCCCC(=O)Nc1ccccc1)NO [Vorinostat] (partner 1 µM)
Method in brief: as §1

[2] = compound: CC1=CC(=NN1)NC2=CC(=NC(=N2)/C=C/C3=CC=CC=C3)N4CCN(CC4)C + Cc1nc(Nc2ncc(C(=O)Nc3c(C)cccc3Cl)s2)cc(N2CCN(CCO)CC2)n1 [Dasatinib] (partner 0.075 µM)
Method in brief: as §1

Cell Line | relative viability ([1]; first compound 0.08 µM) | relative viability ([1]; first compound 0.253 µM) | relative viability ([1]; first compound 0.8 µM) | relative viability ([1]; first compound 2.53 µM) | relative viability ([1]; first compound 8 µM) | relative viability (Obatoclax + Foretinib; first compound 0.01 µM) | relative viability (Obatoclax + Foretinib; first compound 0.03162 µM) | relative viability (Obatoclax + Foretinib; first compound 0.1 µM) | relative viability (Obatoclax + Foretinib; first compound 0.3162 µM) | relative viability (Obatoclax + Foretinib; first compound 1 µM) | relative viability (Obatoclax + Vorinostat; first compound 0.01 µM) | relative viability (Obatoclax + Vorinostat; first compound 0.03162 µM) | relative viability (Obatoclax + Vorinostat; first compound 0.1 µM) | relative viability (Obatoclax + Vorinostat; first compound 0.3162 µM) | relative viability (Obatoclax + Vorinostat; first compound 1 µM) | relative viability ([2]; first compound 0.08 µM) | relative viability ([2]; first compound 0.253 µM) | relative viability ([2]; first compound 0.8 µM) | relative viability ([2]; first compound 2.53 µM) | relative viability ([2]; first compound 8 µM)
NCI-H1651 | 0.754 | 0.854 | 0.912 | 0.643 | 0.244 | 0.766 | 0.734 | 0.774 | 0.47 | 0.42 | 0.587 | 0.491 | 0.512 | 0.384 | 0.595 | 0.423 | 0.398 | 0.407 | 0.171 | 0.116
NCI-H441 | 0.471 | 0.466 | 0.409 | 0.31 | 0.142 | 0.877 | 0.925 | 1.05 | 0.639 | 0.612 | 0.768 | 0.837 | 0.728 | 0.733 | 0.645 | 0.526 | 0.443 | 0.61 | 0.159 | 0.117
ABC-1 | 0.497 | 0.51 | 0.961 | 0.701 | 0.19 | 1.11 | 1.15 | 1.23 | 1.06 | 0.975 | 1.25 | 1.08 | 0.869 | 1.17 | 0.933 | 0.496 | 0.692 | 0.522 | 0.207 | 0.145
NCI-H2126 | 0.934 | 1.01 | 0.882 | 0.812 | 0.224 | 1.11 | 1.1 | 1.12 | 1.16 | 1.13 | 0.748 | 0.688 | 0.993 | 0.807 | 0.792 | 0.64 | 0.696 | 0.662 | 0.476 | 0.189
RERF-LC-KJ | 1.33 | 1.2 | 0.944 | 0.269 | 0.264 | 0.823 | 0.883 | 0.862 | 0.792 | 0.844 | 0.649 | 0.791 | 0.709 | 0.595 | 0.474 | 0.908 | 0.944 | 0.837 | 0.249 | 0.166
NCI-H1666 | 0.987 | 1.01 | 1.02 | 0.985 | 0.328 | 0.952 | 0.989 | 0.959 | 0.482 | 0.384 | 1.03 | 1.08 | 1.11 | 0.998 | 0.754 | 0.787 | 0.874 | 0.778 | 0.659 | 0.294
PC-14 | 0.169 | 0.158 | 0.12 | 0.121 | 0.0829 | 0.858 | 0.945 | 0.917 | 0.872 | 0.661 | 0.625 | 0.736 | 0.696 | 0.341 | 0.0549 | 0.273 | 0.211 | 0.22 | 0.0234 | 0.0115
NCI-H1915 | 0.772 | 0.868 | 0.745 | 0.471 | 0.12 | 1.07 | 1.09 | 1.06 | 1.06 | 1.07 | 0.543 | 0.426 | 0.501 | 0.481 | 0.538 | 0.347 | 0.27 | 0.28 | 0.16 | 0.0845

Source: the supplement of paper PMC10307832
